From PMC9579956 (RSC Medicinal Chemistry, 2022) come the findings set out here.

The test addresses Mycobacterium thermoresistible (Mtr) LpqY (Mycolicibacterium thermoresistibile, UniProt G7CES0). Type of test: binding. Particulars: single dose MST screen against LpqY.

Chain of Mycobacterium thermoresistible (Mtr) LpqY (G7CES0 29-471): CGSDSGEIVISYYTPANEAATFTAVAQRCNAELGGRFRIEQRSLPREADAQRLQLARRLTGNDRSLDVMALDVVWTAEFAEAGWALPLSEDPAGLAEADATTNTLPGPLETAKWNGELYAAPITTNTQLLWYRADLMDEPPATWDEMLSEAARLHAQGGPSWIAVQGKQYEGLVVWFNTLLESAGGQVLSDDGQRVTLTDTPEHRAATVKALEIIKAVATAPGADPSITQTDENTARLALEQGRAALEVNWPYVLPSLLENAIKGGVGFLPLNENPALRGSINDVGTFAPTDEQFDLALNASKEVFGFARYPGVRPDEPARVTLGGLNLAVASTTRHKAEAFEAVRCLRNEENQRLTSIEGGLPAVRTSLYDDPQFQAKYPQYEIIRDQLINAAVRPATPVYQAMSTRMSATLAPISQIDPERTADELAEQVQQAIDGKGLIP

For the compound `CN1CCC(c2cc(-c3ccncc3)c(-c3ccc(F)cc3)[nH]2)CC1` [MMV688703], the “Pathogen Box screen signal/noise ratio” value is listed as 1.2.

For `O=C(Nc1nnc(-c2ccc(Cl)cc2)o1)c1cccc(C(F)(F)F)c1` [MMV102872], the “Pathogen Box screen signal/noise ratio” value is listed as 0.75.

For the compound `COc1ccc(-c2nnc3ccc(-c4cccc(C(C)C)c4)cn23)cc1OC` [MMV688313], the “Pathogen Box screen signal/noise ratio” value is 1.1.

In the case of `Cc1cnc(CCNC(=O)c2cc(-c3ccc(Cl)cc3)cs2)[nH]1` [MMV676350], the “Pathogen Box screen signal/noise ratio” value is 1.3.

As to `O=C(NC1CC1)c1ccc(N2CCC(Cc3ccccc3)CC2)nc1` [MMV024397], the “Pathogen Box screen signal/noise ratio” value is 0.8.

On to `Cc1cc(C)n(-c2ccc(NC(=O)C3CCN(Cc4cnc(C)s4)CC3)cc2)n1` [MMV007625], for which the “Pathogen Box screen signal/noise ratio” value came out at 1.4.

Take `Nc1ncc(-c2ccc(C(F)(F)F)nc2)cc1-c1ccc(C(F)(F)F)nc1` [MMV668727]: the “Pathogen Box screen signal/noise ratio” value is 2.0.

Turning to `Cc1cc(Nc2ccc(C(F)(F)F)cc2)n2ccnc2n1` [MMV011229], the “Pathogen Box screen signal/noise ratio” value is 0.2.

Turning to `CC1=Nc2ccc(Cl)cc2C(c2ccccc2)N1CCNC(=O)CN(C)C` (stereo not shown) [MMV688410], the “Pathogen Box screen signal/noise ratio” value is listed as 0.5.

`N#Cc1ccc(-c2cnc(N)c(-c3ccc(C(N)=O)cc3)n2)cc1` [MMV085499]: the “Pathogen Box screen signal/noise ratio” value stood at 2.4.

`N#Cc1nc(-c2ccccc2F)oc1NCCc1ccccc1` [MMV676384]: the “Pathogen Box screen signal/noise ratio” value is recorded as 1.0.

As for `COc1ccc(-c2cncc3ccc(C(=O)NCCCn4ccnc4)nc23)cc1` [MMV020670], the “Pathogen Box screen signal/noise ratio” value is reported as 2.7.

On to `CC(C)(C)C1CCC(CC2=C(O)C(=O)c3ccccc3C2=O)CC1` (stereo not shown) [MMV689480], for which the “Pathogen Box screen signal/noise ratio” value is 2.3.

As to `Cc1cc(C2=NOC(c3cc(Cl)c(F)c(Cl)c3)(C(F)(F)F)C2)ccc1C(=O)NCc1ccc2c(c1)C(C)(C)OB2O` (stereo not shown) [MMV687776], the “Pathogen Box screen signal/noise ratio” value is given as 1.6.

For `Clc1ccc(-n2cc(COc3ccnc4ccccc34)nn2)cc1` [MMV675994], the “Pathogen Box screen signal/noise ratio” value is 3.3.

For the compound `Nc1nc2ccc(-c3cncc(Oc4ccc(F)cc4)c3)cc2[nH]1` [MMV687248], the “Pathogen Box screen signal/noise ratio” value is 0.2.

On to `COc1ccc(Oc2ccc([C@@H](C)N(C)c3ncc4c(N)nc(N)nc4n3)cc2)cc1` [MMV690102], for which the “Pathogen Box screen signal/noise ratio” value was 2.1.

With `O=C(c1cc2ccccc2o1)N1CCN(Cc2ccc3c(c2)OCO3)CC1` [MMV676520], the “Pathogen Box screen signal/noise ratio” value is reported as 1.1.

As for `CCCn1nnc(NC(=O)COc2ccc(C3CCCCC3)cc2)n1` [MMV676597], the “Pathogen Box screen signal/noise ratio” value is 0.551.

Regarding `CN(C)c1cc(NC(=O)Nc2ccccc2)c2ccccc2n1` [MMV006901], the “Pathogen Box screen signal/noise ratio” value was determined as 1.2.

Regarding `COC(=O)c1c(NC(=O)c2c(F)c(F)c(F)c(F)c2F)sc2c1CCCCC2` [MMV461553], the “Pathogen Box screen signal/noise ratio” value worked out at 2.6.

`Cc1nc(-c2ccccn2)nc(N2CCC(Cc3ccccc3)C2)c1Cl` (stereo not shown) [MMV659004]: the “Pathogen Box screen signal/noise ratio” value worked out at 0.2.

As to `COc1ccc(-c2cnc3ccc(N4CCCC4)nn23)cc1OC` [MMV023985], the “Pathogen Box screen signal/noise ratio” value came out at 2.0.

Regarding `CC(C)(C)c1cc(C(=O)Nc2cccnc2)cc(C(=O)Nc2cccnc2)c1` [MMV020982], the “Pathogen Box screen signal/noise ratio” value came out at 1.3.

In the case of `Cc1nc2ccccn2c1C(=O)NCc1ccc(Cl)cc1` [MMV012074], the “Pathogen Box screen signal/noise ratio” value turned out to be 1.0.

On to `CCCn1c(NC(=O)c2ccc3ccccc3n2)nc2ccccc21` [MMV1030799], for which the “Pathogen Box screen signal/noise ratio” value was 0.9.

As for `Cc1cc(C)c2cc(C(=O)NC3CCCCCCC3)[nH]c2c1` [MMV687146], the “Pathogen Box screen signal/noise ratio” value is 1.1.

Regarding `O=C(Nc1ccc2c(c1)B(O)OC2)c1ccccc1C(F)(F)F` [MMV652003], the “Pathogen Box screen signal/noise ratio” value came out at 0.444.

`Cc1nn(C)c(C)c1NS(=O)(=O)c1c(Cl)cc(-c2ccnc(N3CCNCC3)c2)cc1Cl` [MMV688180]: the “Pathogen Box screen signal/noise ratio” value is listed as 0.15.

As to `CN1CCN(c2nccc3[nH]c(-c4cccc(F)c4)cc23)CC1` [MMV393144], the “Pathogen Box screen signal/noise ratio” value came out at 1.4.

As to `Cc1ccccc1C(=O)N1N=C(Nc2ccccc2)SC1(C)C` [MMV688771], the “Pathogen Box screen signal/noise ratio” value was 0.4.

In the case of `CCN(CC)CCCCCCNc1cc(OC)cc2c(C)ccnc12` [MMV000063], the “Pathogen Box screen signal/noise ratio” value worked out at 2.2.

As for `Cc1cc(OCC(=O)NCc2ccccc2)c2cc(Br)ccc2n1` [MMV687747], the “Pathogen Box screen signal/noise ratio” value came out at 0.856.

In the case of `N#Cc1nc(-c2ccccc2)oc1S(=O)(=O)c1ccc(Cl)cc1` [MMV676412], the “Pathogen Box screen signal/noise ratio” value is on record as 0.6.

As to `Cc1ccc2cc(C3NC(=O)c4ccccc4N3)c(Cl)nc2c1` (stereo not shown) [MMV019807], the “Pathogen Box screen signal/noise ratio” value turned out to be 0.7.

With `O=C1O[C@@H](COc2ccon2)CN1c1cc(F)c(C2=CCN(Cc3ccccc3)CC2)c(F)c1` [MMV687813], the “Pathogen Box screen signal/noise ratio” value is on record as 1.0.

In the case of `CCCS(=O)(=O)N1CCC(CO)(Cc2ccccc2C(F)(F)F)CC1` [MMV001059], the “Pathogen Box screen signal/noise ratio” value was determined as 0.0926.

With `Cn1c(=O)c2c(S(C)(=O)=O)snc2n(C)c1=O` [MMV687251], the “Pathogen Box screen signal/noise ratio” value worked out at 0.0729.

As to `CC1(C)Cc2c(c(N3CCOCC3)nc3snc(Br)c23)CO1` [MMV687794], the “Pathogen Box screen signal/noise ratio” value is 0.0714.

For `O=C(NCCc1ccccc1)c1cc(-c2cccnc2)cnc1NCC1CC1` [MMV026490], the “Pathogen Box screen signal/noise ratio” value turned out to be 1.4.

As for `COc1ccc(-c2cc(NC(=O)c3ccc(F)cc3Cl)ccc2OC)cc1` [MMV676526], the “Pathogen Box screen signal/noise ratio” value came out at 0.556.

As for `CCOc1ccc(-c2nc(NC(=O)CS(=O)(=O)c3ccccc3)sc2C)cc1` [MMV007638], the “Pathogen Box screen signal/noise ratio” value was determined as 0.254.

As for `CC(C)(C)c1cc(C(=O)N2CCN(c3nccnc3C#N)CC2)n(Cc2ccccc2)n1` [MMV023949], the “Pathogen Box screen signal/noise ratio” value came out at 0.7.

On to `CCc1cc(=O)n(C)c(SC(C)C(=O)Nc2ccc(F)cc2)n1` (stereo not shown) [MMV688980], for which the “Pathogen Box screen signal/noise ratio” value turned out to be 1.3.

`CCOc1ccc2cc(-c3nn(CC4CCN(C)CC4)c4ncnc(N)c34)ccc2c1` [MMV688854]: the “Pathogen Box screen signal/noise ratio” value worked out at 1.2.

As for `O=C([C@@H](c1ccc(Cl)cc1)c1cccnc1)N1CCN(c2ccc(C(F)(F)F)cc2)CC1` [MMV689244], the “Pathogen Box screen signal/noise ratio” value is recorded as 1.8.

Consider `FC(F)(F)c1nnc2ccc(Cl)nn12` [MMV069458], for which the “Pathogen Box screen signal/noise ratio” value came to 2.4.

With `Cc1nc(-c2ccccn2)nc(NCCc2ccc(S(C)(=O)=O)cc2)c1Cl` [MMV658993], the “Pathogen Box screen signal/noise ratio” value came out at 0.75.

Regarding `NCC(c1cccs1)S(=O)(=O)c1ccccc1` (stereo not shown) [MMV688557], the “Pathogen Box screen signal/noise ratio” value was determined as 0.569.

Regarding `Cc1cc(Nc2ccncc2)n2nc(C)c(-c3ccccc3Cl)c2n1` [MMV016136], the “Pathogen Box screen signal/noise ratio” value came out at 1.7.

Turning to `O=C1N(Cc2cc3ccccc3s2)CC2CN(Cc3ccccc3)CCN12` (stereo not shown) [MMV084603], the “Pathogen Box screen signal/noise ratio” value came to 1.3.

`O=C(C1CCN(c2cc(-n3cccc3)ncn2)CC1)N1CCc2ccccc2C1` [MMV687172]: the “Pathogen Box screen signal/noise ratio” value came to 0.431.

On to `O=C(CN1CCOCC1)Nc1ccc2ncnc(Nc3ccc(OCc4cccc(F)c4)c(Cl)c3)c2c1` [MMV688274], for which the “Pathogen Box screen signal/noise ratio” value is listed as 1.0.

Regarding `COc1cc(Br)cc2cc(C(=O)Nc3cccc(C(F)(F)F)c3)c(=O)oc12` [MMV688891], the “Pathogen Box screen signal/noise ratio” value turned out to be 0.646.

For the compound `COc1ccc(Nc2ccccc2NC(=O)c2ccc(O)nc2)cc1` [MMV676554], the “Pathogen Box screen signal/noise ratio” value stood at 1.8.

Turning to `CCc1nc2ccc(Cl)cn2c1C(=O)NCc1ccc(N2CCC(c3ccc(OC(F)(F)F)cc3)CC2)cc1` [MMV687696], the “Pathogen Box screen signal/noise ratio” value was found to be 1.0.

Turning to `c1cncc(NCc2ccc(-c3cc4ccncc4cc3OC3CCNCC3)s2)c1` [MMV023969], the “Pathogen Box screen signal/noise ratio” value turned out to be 1.3.

As to `O=C(NCc1nnc2n1CCCCC2)c1ccc(-c2ccc(F)cc2)o1` [MMV688796], the “Pathogen Box screen signal/noise ratio” value amounted to 0.278.

As to `COc1cc2ncnc(NC3CCN(Cc4ccccc4)CC3)c2cc1OC` [MMV006741], the “Pathogen Box screen signal/noise ratio” value worked out at 4.3.

In the case of `COc1ccc(C2=NCCN2)cc1-c1cn(-c2cccc(C3=NCCN3)c2)nn1` [MMV688547], the “Pathogen Box screen signal/noise ratio” value was 0.9.

Regarding `Cc1ccc2nc(Cl)c(CNCc3cccs3)cc2c1` [MMV676439], the “Pathogen Box screen signal/noise ratio” value was determined as 0.278.

For the compound `Cc1cccc(C(=O)Nc2ccnc(N(C)C3CCN(CC(C)C)CC3)c2)c1` [MMV024829], the “Pathogen Box screen signal/noise ratio” value was -0.0167.

Turning to `CNc1nnc(Sc2cnn(-c3ccccc3)c(=O)c2Cl)s1` [MMV688763], the “Pathogen Box screen signal/noise ratio” value amounted to 4.7.

Take `CCC(=O)Nc1ccccc1C(=O)Nc1ccccn1` [MMV202553]: the “Pathogen Box screen signal/noise ratio” value is reported as 1.4.

As to `O=C(NCCc1ccn(-c2ccccc2)n1)C1CCCCC1` [MMV688795], the “Pathogen Box screen signal/noise ratio” value came to 0.0455.

As to `O=C(c1ccc(F)cc1)N(CCNc1ccccc1)c1ccccc1` [MMV676204], the “Pathogen Box screen signal/noise ratio” value is listed as 0.644.

In the case of `COc1ccc(C2=NN(C3CCCCCC3)C(=O)[C@@H]3CC=CC[C@H]23)cc1OCCCCOc1ccc(-c2nn[nH]n2)cc1` [MMV690027], the “Pathogen Box screen signal/noise ratio” value came to 0.9.

On to `COc1ccc(S(=O)(=O)Nc2ccc(CN3CCN(C(=O)c4cccc(C#N)c4)CC3)cc2)cc1` [MMV689029], for which the “Pathogen Box screen signal/noise ratio” value is 0.156.

With `CS(=O)(=O)c1ccc(C(=O)N(CC2CCCO2)c2nc3ccccc3s2)cc1[N+](=O)[O-]` (stereo not shown) [MMV688761], the “Pathogen Box screen signal/noise ratio” value amounted to 0.6.

Take `Clc1ccc(CCNc2cc(-c3ccccc3)nc3ncnn23)cc1` [MMV688889]: the “Pathogen Box screen signal/noise ratio” value was found to be 3.0.

On to `O=C(c1[nH]nc2c1CCCC2)N1CCN(Cc2ccc3c(c2)OCO3)CC1` [MMV676389], for which the “Pathogen Box screen signal/noise ratio” value worked out at 1.7.

As to `CC(C(=O)Nc1ccc2oc(-c3ccncc3)nc2c1)c1ccccc1` (stereo not shown) [MMV688471], the “Pathogen Box screen signal/noise ratio” value is on record as 1.6.

`O=C(c1ccc(NCCO)cc1)C1C[C@H]1c1ccc(Cl)cc1` (stereo partly shown) [MMV676877]: the “Pathogen Box screen signal/noise ratio” value stood at 0.0.
